The record followed here is patent US7482008B1, “Human T cell reactive feline protein (TRFP) isolated from house dust and uses therefor” (Merck Patent GmbH, priority 1989, dated 2009).

Assay [1] deals with T cells from cat-allergic patients. The assay can be described thus: Secondary proliferation assay of T cells primed with TRFP, peptide YXZ or peptide YZX. In kind it is cell-based, human. As for the experimental part: The human cat allergic T cell response to peptides produced as above was examined. […] Peptide YZX was cleaved with thrombin as described in Example 25. Viable cells were then purified by Ficoll-Hypaque centrifugation and cultured for 2 additional weeks in RPMI-1640/5% AB serum containing 5 units recombinant human IL-2/ml and 5 units recombinant human IL-4/ml. The resting T cells were then tested in a secondary proliferation assay using a 96 well microtiter plate to assess T cell responses to various TRFP proteins or peptides (TRFP antigens). For assay, 2×10^4 resting T cells were cultured for 3 days at 37° C. in the presence of 2×10^4 autologous Epstein-Barr virus transformed B cells (25,000 Rads) as antigen presenting cells with various concentrations of antigen in 200 μl per well. Each well then received 1 μCi tritiated thymidine for 16 hours. The counts incorporated were collected onto glass fiber filters and processed for liquid scintillation counting. The stimulation indices for responses to each antigen were then calculated as the maximum CPM in response to antigen divided by the medium control CPM. A stimulation index of 2.5 was considered to be a positive T cell response. A summary of the results of 3 such experiments (patients 522, 519, and 386 is shown in FIG. 35a, FIG. 35b and FIG. 35c). As compared to the experiments shown in FIGS. 35a and 35b in the experiment shown in […], Fel-1.4 (chain 1, amino acid residues 6-17) was substituted for Fel-1.2 (chain 1, amino acid residues 1-17) and Fel-33.3 (chain 2, amino acid residues 26-40) was substituted for Fel-18 (chain 2, amino acid residues 23-48) in order to more closely resemble the constituent amino acids of peptides X and Z. In addition, in this experiment one peptide derived from the Y-Z junction of peptide YZX (amino acid residues 50-55 from chain 1 of TRFP and amino acid residues 14-19 from chain 2 of TRFP) and one peptide derived from the Z-X junction of peptide YZX (amino acid residues 34-39 of chain 2 of TRFP and amino acid residues 7-12 of chain 1 of TRFP) were synthesized and tested. These junction peptides were produced in order to determine whether these areas of peptide YZX produce a non-native epitope when formed in the peptide.

For assay [2], the system named is human IgE (cat allergic patient plasma). The assay can be described thus: Direct binding ELISA of human IgE to coated antigen. As to conditions: for specific IgE binding: direct binding ELISA or similar protocol. As for the experimental part:
The basic format of these ELISA assays was a direct binding assay wherein the antigen was coated onto the wells of a 96 well microtitre dish and then antibodies in solution are added and assayed for the binding capacity. The protocol for these assays was as follows:
The peptides were conjugated to HSA (human serum albumin) by two different methods based on their chemical structure. […] Both conjugates were filter purified and dialyzed against PBS. In the ELISA assay, the unbound coating antigens were removed and the wells were blocked with 0.5% gelatin in PBS, 200 μl/well for 2 hours at room temperature. The antibody solution was a pool of plasma samples from 20 patients that were skin test positive for commercial cat extract which was serially diluted with PBS-Tween 20 (PBS with 0.05% nonionic detergent Tween-Sigma, St. Louis Mo.) and 100 μl/well was added and incubated overnight at 4° C. (plasma dilutions are tested in duplicate). […] The second antibody (biotinylated goat anti-Human IgE, 1:1000 Kirkegaard & Perry Laboratories Inc. Gaithersburg, Md.), was added at 100 μl/well for one hour at room temperature. This solution was removed and streptavidin-HRPO, 1:1000, (Southern Biotechnology Associates, Inc., Birmingham, Ala.) was then added at 100 μl/well for one hour at room temperature (all wells were washed three times with PBS-Tween between each incubation step). TMB Membrane Peroxidase Substrate system (Kirkegaard & Perry Laboratories) was freshly mixed, and added at 100 μl/well. The color was allowed to develop for 2-5 minutes. The reaction was stopped by the addition of […] of 1 M phosphoric acid. Plates are read on a Microplate EL 310 Autoreader (Biotek Instruments, Winooski, Vt.) with a 450 nm filter. The absorbance levels of duplicate wells were averaged.

The test system of assay [3] is basophils. Kind of assay: Histamine release from basophils in heparinized whole blood of cat allergic patients. In kind it is cell-based, human. Conditions: eight cat allergic patients. As for the experimental part: The histamine release assay used for these studies is based on the detection of an acylated derivative of histamine using a specific monoclonal antibody (Morel, A. M. and Delaage, M. A.; 1988, J. Allergy Clin. Immunol. 82:646-654.) This assay was performed as two separate protocols: 1) the release of histamine from basophils present in heparinized whole blood in the presence of different concentrations of antigens and 2) the actual assaying of histamine present in the supernates of the release reactions following cell removal by centrifugation. The reagents for this histamine radioimmunoassay are supplied commercially as a kit by Amac Inc. (Westbrook, Me.).
Whole blood was drawn from cat allergic patients using heparinized syringes or vacutainers. […] The buffer control consisted of whole blood with just buffer and no added antigen. The release reactions were then carried out at 37° C. for 30 minutes. After this incubation the tubes were centrifuged at 1500 RPM for 3 minutes and the supernates were carefully removed. It was important to spin gently so that there would be no cell lysis giving misleading results. […]
For the RIA analysis, a 50 μl aliquot of the release supernatant was diluted 1:4 with Histamine release buffer (supplied with the kit from Amac Inc.) Then 100 μl of each diluted supernatant was added to the tubes containing the acylation reagent (a lyophilized powder). […] Then they were counted on a gamma counter (Cobra 5005, Beckman Inc.) for two minutes/tube.
Following the quantitation of ^125I label/tube the standard curve is generated from the histamine standard counts and plotted on semi-log paper. Because this is a competition assay, with labelled ^125I tracer competing with the standards or unknowns for cell supernatants, the lower the recorded counts the greater the amount of cold acylated histamine in the binding assay. The data points were then generated by reading off the values on the plotted standard curve of counts versus histamine concentration (in nM).

[4] abbreviates: patient 386, T cells primed with YZX.
Setting [5] is: patient 386, T cells primed with native TRFP.
The mark [6] stands for this setting: patient 519, cells primed with peptide YXZ.
Where [7] appears, read: patient 519, native TRFP-primed T cells.
Where [8] appears, read: patient 522, T cells primed with YXZ.
[9] abbreviates: patient 522, T cells primed with native TRFP, SI 2.5 positive.

Consider “peptide Y: amino acid residues 29-55 from chain 1 of TRFP (SEQ. ID. NO: 18) (KALPVVLENARILKNCVDAKMTEEDKE)”, for which the T cell response result in assay [1] (setting [4]) was “respond at a similar level or better”; in assay [1] (setting [5]), “positively respond”; in assay [1] (setting [6]) it was “positive responses”; in assay [1] (setting [7]), “respond”; in assay [1] (setting [8]) it was “respond at a similar level or better”; in assay [1] (setting [9]) it was “positively respond”. The “specific IgE binding” value in assay [2] is reported as “do not demonstrate any specific IgE binding”; in assay [2] (listed as Fel 30-4) it was “No direct IgE binding”. In addition, the histamine release entry in assay [3] is on record as “no discernible histamine release”.
For “NARILKNCVDAKMTEEDKE [Fel 4, TRFP chain 1 amino acids 37-55]”, the T cell response result is on record as “positive responses” in assay [1] (setting [6]) and “respond at a similar level or better” in assay [1] (setting [8]).
With “TRFP: human T cell reactive feline protein affinity purified from house dust; two covalently linked chains”, the T cell response result is “respond at a similar level or better” in assay [1] (setting [4]); “positively respond” in assay [1] (setting [5]); “positive responses” in assay [1] (setting [6]); “respond” in assay [1] (setting [7]); “respond less well” in assay [1] (setting [8]); “positively respond” in assay [1] (setting [9]). Besides, in assay [2] (ELISA, percent of cat allergic patients with positive IgE binding), the “Positive Binding” value turned out to be 100%. Moreover, the “absorbance reading, IgE binding” value in assay [2] (pooled plasma, first dilution 1:2 in PBS) is recorded as 0.65. Also, in assay [3], the histamine release entry is “at all but the lowest concentration, gives a clear release signal”.
For the substance “peptide X: amino acid residues 7-30 from chain 1 of TRFP (SEQ. ID. NO: 17); Table 2 lists Fel 8-3 as 7-33 (KRDVDLFLTGTPDEYVEQVAQYKALPV)”, the T cell response entry in assay [1] (setting [4]) is “respond at a similar level or better”; in assay [1] (setting [5]) it was “positively respond”; in assay [1] (setting [6]), “positive responses”; in assay [1] (setting [8]), “respond at a similar level or better”. The figures for the “specific IgE binding” value in assay [2] and in assay [2] (listed as Fel 8-3) were “do not demonstrate any specific IgE binding” and “No direct IgE binding”, respectively. Moreover, the histamine release result in assay [3] is reported as “no discernible histamine release”.
